Measured values: ChEMBL document CHEMBL1201862, “PubChem BioAssay data set” (2004)
Activity calls are given as the source filed them.

Columns and labels:
Troponin, cardiac muscle = Troponin, cardiac muscle (Homo sapiens, UniProt P19429+P45379+P63316); assay: Fluorescence-based biochemical high throughput dose response assay for activators of the calcium sensitivity of cardiac Regulated Thin Filaments (RTF). [Related pubchem assays (depositor defined):AID493008, AID493018, AID504382, AID504383]; format: protein-complex assay
[1] = target: Alkaline phosphatase, placental type (Homo sapiens, UniProt P05187); assay: PLAP enzyme inhibitors, confirmation, biochemical, luminescence (AID 1512); format: functional
[2] = target: T1, Alkaline phosphatase, tissue-nonspecific isozyme (Homo sapiens, UniProt P05186); assay: human TNAP enzyme inhibitors, SAR follow-up, biochemical, luminescent, dose response (AID 1056)
T1 sequence (P05186 whole entry): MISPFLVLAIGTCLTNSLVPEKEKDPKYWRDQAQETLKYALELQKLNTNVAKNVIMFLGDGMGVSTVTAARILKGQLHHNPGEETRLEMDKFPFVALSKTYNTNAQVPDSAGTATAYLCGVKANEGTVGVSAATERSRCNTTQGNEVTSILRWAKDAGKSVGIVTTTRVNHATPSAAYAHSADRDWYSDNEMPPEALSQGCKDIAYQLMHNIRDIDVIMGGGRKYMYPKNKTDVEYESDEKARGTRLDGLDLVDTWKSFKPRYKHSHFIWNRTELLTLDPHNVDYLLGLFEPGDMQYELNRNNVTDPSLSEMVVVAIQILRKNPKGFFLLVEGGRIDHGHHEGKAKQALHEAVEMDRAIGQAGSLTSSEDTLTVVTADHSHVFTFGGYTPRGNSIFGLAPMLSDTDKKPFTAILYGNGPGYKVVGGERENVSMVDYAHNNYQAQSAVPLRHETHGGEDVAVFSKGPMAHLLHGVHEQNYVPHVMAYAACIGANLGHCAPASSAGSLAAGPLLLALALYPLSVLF

[3] = target: T2, G-protein coupled receptor 55 (Homo sapiens, UniProt Q9Y2T6); assay: GPR55 antagonists blocking LPI-driven arrestin recruitment, primary screen, imaging, U2OS, beta-arrestin-GFP, LPI agonist (AID 2013); format: functional;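 further: antagonist potency measured as reduced agonist-driven arrestin aggregation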
[4] = Vero E6 cell cytotoxicity, dose response, cytotoxicity control for non-replicating M. tuberculosis project, secondary assay (AID 492998); format: functional, VeroE6; details: Vero C1008
[5] = inhibitors of intracellular T. cruzi replication, confirmation, NIH3T3 host cells, beta-gal luminescence (AID 2044); format: functional, cell-based;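 further: intracellular parasites grown in NIH/3T3 mouse fibroblasts as host cells; luminescent beta-galactosidase reporter signal from transgenic T. cruzi replicating inside host cells; inhibitors lower the luminescence signal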
[6] = HepG2 cell cytotoxicity, dose response, cytotoxicity control for non-replicating M. tuberculosis project (AID 489018); format: functional; details: Mycobacterium tuberculosis
[7] = cytotoxicity toward NIH3T3 fibroblasts, dose response, counter-screen, cell-based, ATP luminescence, mouse fibroblasts (AID 2010); format: functional;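 further: cells exposed to compound for about 90 hours before reading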
[8] = Counterscreen for AddAB inhibitors: absorbance-based bacterial cell-based high throughput dose response assay for inhibitors of bacterial viability. [Related pubchem assays (depositor defined):AID435030, AID449728, AID449731, AID488942, AID488955, AID488956]; format: functional
[9] = THP-1 cell cytotoxicity, dose response, cytotoxicity control for non-replicating M. tuberculosis project (AID 489025); format: functional
Exodeoxyribonuclease V = target: T3, Exodeoxyribonuclease V (Escherichia coli (strain K12), UniProt P04993+P07648+P08394); assay: E. coli RecBCD inhibitors, dose response, counter-screen for AddAB inhibitor project, absorbance, V66 E. coli, mutant T4 phage (AID 492957); format: functional, cell-based, Escherichia coli str. K-12 substr. MG1655
T3 sequence (P04993 whole entry): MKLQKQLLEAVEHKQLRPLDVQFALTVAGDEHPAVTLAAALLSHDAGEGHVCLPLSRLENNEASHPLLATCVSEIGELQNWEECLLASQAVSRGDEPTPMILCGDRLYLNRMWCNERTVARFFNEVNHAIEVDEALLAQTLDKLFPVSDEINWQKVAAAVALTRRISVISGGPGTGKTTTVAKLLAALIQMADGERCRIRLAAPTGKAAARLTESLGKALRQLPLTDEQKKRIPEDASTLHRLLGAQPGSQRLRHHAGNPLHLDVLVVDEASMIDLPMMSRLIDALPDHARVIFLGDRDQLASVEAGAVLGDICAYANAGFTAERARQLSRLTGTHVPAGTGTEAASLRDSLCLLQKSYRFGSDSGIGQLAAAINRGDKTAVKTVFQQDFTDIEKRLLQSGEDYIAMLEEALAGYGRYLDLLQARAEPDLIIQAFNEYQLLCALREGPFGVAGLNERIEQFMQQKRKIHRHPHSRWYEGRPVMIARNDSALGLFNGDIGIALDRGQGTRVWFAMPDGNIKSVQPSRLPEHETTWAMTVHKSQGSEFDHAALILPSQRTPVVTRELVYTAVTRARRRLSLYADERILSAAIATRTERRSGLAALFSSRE
T3 sequence (P07648 whole entry): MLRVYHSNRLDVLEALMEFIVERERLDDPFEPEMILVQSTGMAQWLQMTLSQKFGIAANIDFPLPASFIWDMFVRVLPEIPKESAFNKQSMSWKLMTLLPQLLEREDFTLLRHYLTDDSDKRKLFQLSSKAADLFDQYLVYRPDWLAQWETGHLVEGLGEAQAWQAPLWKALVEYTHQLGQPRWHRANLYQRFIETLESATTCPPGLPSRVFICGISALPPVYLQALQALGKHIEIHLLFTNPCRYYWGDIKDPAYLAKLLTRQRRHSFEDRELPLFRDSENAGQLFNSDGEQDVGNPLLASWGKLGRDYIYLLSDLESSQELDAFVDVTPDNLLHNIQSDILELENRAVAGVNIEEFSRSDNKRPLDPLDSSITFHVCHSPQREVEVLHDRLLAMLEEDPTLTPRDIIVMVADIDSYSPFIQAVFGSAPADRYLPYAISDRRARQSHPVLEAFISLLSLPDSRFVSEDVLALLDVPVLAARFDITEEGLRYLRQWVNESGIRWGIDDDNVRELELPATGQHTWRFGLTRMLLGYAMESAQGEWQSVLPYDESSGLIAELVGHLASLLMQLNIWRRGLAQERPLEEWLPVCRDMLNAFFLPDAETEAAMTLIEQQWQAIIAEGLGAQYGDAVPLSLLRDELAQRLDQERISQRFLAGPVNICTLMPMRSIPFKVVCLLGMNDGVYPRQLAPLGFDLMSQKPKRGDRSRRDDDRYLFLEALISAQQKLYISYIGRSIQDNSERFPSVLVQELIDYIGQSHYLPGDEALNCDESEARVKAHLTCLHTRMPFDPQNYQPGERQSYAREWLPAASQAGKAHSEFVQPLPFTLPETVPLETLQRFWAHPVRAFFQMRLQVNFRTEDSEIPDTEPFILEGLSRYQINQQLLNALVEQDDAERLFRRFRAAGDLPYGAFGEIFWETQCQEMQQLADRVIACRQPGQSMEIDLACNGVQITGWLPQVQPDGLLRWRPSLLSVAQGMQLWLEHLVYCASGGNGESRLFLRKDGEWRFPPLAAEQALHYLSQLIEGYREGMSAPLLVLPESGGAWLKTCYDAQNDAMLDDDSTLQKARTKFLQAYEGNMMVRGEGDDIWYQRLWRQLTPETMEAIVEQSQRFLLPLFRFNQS
T3 sequence (P08394 whole entry): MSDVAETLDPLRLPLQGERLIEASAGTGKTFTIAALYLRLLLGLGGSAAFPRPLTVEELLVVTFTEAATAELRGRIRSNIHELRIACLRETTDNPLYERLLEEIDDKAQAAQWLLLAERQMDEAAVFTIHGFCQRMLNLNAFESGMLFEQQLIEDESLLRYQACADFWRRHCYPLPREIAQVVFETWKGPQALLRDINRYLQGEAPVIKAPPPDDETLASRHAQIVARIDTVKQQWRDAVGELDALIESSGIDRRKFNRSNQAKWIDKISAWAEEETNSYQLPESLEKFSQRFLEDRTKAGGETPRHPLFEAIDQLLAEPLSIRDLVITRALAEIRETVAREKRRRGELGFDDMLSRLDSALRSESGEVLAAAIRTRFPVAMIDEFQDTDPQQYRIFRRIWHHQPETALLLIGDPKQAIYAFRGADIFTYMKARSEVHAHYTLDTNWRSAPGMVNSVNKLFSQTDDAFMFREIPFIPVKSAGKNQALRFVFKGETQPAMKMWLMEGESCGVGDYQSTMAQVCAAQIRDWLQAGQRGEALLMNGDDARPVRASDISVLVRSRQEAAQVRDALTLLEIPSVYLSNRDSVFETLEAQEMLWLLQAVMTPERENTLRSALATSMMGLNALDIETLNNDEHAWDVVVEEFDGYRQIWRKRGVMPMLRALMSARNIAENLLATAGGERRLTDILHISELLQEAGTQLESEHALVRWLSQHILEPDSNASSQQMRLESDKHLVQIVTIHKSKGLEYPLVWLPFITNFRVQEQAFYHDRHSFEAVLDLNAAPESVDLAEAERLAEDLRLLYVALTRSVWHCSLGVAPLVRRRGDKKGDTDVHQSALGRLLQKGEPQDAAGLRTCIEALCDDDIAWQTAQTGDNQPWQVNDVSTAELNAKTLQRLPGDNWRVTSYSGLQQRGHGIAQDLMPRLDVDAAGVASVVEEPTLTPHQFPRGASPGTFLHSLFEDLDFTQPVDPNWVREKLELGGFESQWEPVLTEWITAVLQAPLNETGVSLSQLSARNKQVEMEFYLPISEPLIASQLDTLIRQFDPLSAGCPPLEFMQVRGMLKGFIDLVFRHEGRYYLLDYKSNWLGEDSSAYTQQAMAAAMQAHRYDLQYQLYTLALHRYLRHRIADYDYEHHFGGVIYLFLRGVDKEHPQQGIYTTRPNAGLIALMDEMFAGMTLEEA

[10] = target: Kappa-type opioid receptor (Homo sapiens, UniProt P41145); assay: SAR analysis of small molecule agonists of the kappa opioid receptor via a luminescent beta-arrestin assay - Set 3. [Related pubchem assays (depositor defined):AID1777, AID1785, AID1786, AID1966, AID2133, AID2136, AID2284, AID2500]; format: functional
[11] = target: DNA dC->dU-editing enzyme APOBEC-3G (Homo sapiens, UniProt Q9HC16); assay: Dose Response confirmation of small molecule APOBEC3G DNA Deaminase Inhibitors via a fluorescence-based single-stranded DNA deaminase assay. [Related pubchem assays (depositor defined):AID493012, AID493028]; format: functional
[12] = target: DNA dC->dU-editing enzyme APOBEC-3A (Homo sapiens, UniProt P31941); assay: APOBEC3A DNA deaminase inhibitors, dose response, biochemical (AID 504722); format: functional
[13] = human group III sPLA2 inhibitors, dose response, biochemical, QFRET, IC50 (AID 743457);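 further: green fluorescence rise as the enzyme cleaves BODIPY PC-A2 in liposomes; potency for inhibition of the enzyme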
Paired box protein Pax-8 = Paired box protein Pax-8 (Homo sapiens, UniProt Q06710); assay: inhibitors of PAX8-driven TPO luciferase reporter, dose response, RMG-I cells, cherry-pick (AID 687027); format: functional, cell-based;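 further: luciferase reporter driven by Pax8 target thyroperoxidase promoter measured by SteadyGlo luminescence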
[14] = target: T4, Microphthalmia-associated transcription factor (Homo sapiens, UniProt O75030); assay: TRPM1 promoter luciferase signal decrease, dose response, MITF inhibitor project, cell-based, SK-MEL-5, cherry-picked, set 3 (AID 493073); format: functional
T4 sequence (O75030 whole entry): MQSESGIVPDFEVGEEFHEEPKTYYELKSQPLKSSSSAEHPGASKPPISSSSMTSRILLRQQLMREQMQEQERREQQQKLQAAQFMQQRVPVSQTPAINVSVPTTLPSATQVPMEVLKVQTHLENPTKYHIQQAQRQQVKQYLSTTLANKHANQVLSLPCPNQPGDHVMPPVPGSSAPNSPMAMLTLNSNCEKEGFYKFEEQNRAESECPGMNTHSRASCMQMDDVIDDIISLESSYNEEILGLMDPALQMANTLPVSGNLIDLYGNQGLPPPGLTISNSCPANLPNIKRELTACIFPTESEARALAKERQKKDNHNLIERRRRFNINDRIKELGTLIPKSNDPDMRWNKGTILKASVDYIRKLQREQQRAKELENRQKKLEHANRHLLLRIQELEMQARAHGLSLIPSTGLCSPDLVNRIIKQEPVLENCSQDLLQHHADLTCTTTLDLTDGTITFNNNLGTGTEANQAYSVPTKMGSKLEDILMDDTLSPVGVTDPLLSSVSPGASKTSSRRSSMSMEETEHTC

cells = format: functional
[15] = target: Glyceraldehyde-3-phosphate dehydrogenase (Homo sapiens, UniProt P04406)
[16] = target: T2, G-protein coupled receptor 55; assay: GPR55 agonists via beta-arrestin recruitment, primary screen, imaging, U2OS cells, beta-arrestin-GFP redistribution (AID 1961); format: functional

Sequence of Alkaline phosphatase, placental type (P05187 whole entry): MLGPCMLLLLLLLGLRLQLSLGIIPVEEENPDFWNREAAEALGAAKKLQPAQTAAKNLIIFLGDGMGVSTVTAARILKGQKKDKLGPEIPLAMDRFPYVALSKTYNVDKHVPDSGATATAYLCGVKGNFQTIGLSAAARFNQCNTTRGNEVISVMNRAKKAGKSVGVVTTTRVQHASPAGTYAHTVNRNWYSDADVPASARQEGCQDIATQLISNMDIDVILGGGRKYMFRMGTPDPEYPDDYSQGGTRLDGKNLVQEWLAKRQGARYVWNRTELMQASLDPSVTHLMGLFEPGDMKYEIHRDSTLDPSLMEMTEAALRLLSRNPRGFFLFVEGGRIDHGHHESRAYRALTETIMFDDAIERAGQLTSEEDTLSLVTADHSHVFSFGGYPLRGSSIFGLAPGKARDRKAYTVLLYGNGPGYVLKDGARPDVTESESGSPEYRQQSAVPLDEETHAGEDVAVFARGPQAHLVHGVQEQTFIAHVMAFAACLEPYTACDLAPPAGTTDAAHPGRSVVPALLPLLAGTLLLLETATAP
T2 sequence (Q9Y2T6 whole entry): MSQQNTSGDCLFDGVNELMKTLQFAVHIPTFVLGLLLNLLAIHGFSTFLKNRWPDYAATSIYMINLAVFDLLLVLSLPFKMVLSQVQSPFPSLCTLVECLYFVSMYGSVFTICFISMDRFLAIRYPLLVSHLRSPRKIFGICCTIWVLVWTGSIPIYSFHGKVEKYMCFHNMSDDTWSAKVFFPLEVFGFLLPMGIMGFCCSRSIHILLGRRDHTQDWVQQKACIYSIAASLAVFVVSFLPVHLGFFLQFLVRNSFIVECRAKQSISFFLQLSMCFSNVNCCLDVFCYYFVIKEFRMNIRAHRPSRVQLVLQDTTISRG
Sequence of DNA dC->dU-editing enzyme APOBEC-3G (Q9HC16 whole entry): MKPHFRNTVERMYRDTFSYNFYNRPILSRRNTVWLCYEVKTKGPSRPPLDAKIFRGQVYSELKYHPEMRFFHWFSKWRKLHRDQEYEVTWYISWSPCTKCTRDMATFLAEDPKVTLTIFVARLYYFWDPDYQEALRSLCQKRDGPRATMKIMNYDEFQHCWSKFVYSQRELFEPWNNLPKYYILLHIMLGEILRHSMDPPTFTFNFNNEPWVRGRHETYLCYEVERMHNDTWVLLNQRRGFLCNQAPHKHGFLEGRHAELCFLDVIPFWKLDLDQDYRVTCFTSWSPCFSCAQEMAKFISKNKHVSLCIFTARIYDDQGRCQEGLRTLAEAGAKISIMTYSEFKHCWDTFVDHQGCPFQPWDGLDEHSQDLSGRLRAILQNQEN
Sequence of DNA dC->dU-editing enzyme APOBEC-3A (P31941 whole entry): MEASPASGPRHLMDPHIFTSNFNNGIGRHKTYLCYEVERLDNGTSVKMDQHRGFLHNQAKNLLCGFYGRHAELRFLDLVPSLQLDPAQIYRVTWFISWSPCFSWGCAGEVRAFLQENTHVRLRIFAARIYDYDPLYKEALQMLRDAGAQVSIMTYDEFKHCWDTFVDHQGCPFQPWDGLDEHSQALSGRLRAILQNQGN
Sequence of Glyceraldehyde-3-phosphate dehydrogenase (P04406 whole entry): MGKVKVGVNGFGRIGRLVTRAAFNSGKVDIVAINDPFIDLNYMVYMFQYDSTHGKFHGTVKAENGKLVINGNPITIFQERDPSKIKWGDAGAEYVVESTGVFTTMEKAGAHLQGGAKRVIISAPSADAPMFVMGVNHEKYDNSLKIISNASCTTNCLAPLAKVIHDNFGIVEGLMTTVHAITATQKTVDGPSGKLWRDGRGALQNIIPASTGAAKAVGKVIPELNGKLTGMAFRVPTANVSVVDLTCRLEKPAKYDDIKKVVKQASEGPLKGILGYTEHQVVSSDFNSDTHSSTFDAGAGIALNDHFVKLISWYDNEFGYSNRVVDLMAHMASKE
Sequence of Kappa-type opioid receptor (P41145 whole entry): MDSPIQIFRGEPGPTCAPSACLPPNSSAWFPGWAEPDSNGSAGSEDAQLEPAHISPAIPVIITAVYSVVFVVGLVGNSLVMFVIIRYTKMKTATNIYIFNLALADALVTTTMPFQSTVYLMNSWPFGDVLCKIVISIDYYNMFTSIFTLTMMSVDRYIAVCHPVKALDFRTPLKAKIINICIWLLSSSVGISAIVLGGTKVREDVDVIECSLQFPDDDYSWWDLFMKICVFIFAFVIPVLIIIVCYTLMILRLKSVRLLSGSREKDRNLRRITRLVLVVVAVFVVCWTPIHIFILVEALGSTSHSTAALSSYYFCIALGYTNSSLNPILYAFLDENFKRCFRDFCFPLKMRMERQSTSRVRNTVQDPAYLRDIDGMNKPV
Sequence of Paired box protein Pax-8 (Q06710 whole entry): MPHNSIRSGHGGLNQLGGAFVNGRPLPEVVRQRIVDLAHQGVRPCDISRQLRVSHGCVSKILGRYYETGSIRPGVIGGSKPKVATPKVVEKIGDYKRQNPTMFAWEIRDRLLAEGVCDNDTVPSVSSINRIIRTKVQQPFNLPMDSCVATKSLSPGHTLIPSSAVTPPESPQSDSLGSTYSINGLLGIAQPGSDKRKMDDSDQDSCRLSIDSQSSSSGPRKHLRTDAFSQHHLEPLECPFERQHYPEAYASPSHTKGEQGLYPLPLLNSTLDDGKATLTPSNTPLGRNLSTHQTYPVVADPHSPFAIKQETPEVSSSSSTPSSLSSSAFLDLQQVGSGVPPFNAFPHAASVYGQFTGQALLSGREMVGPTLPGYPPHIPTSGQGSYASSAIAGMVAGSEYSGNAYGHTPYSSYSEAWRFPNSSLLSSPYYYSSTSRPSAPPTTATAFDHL

## CCCNC(=O)Cn1c(=O)/c(=C\c2ccc(-c3ccc([N+](=O)[O-])cc3)o2)s/c1=C\C(=O)C(C)(C)C
Troponin, cardiac muscle
  EC50: 0.165 µM (active)

## Cc1cc(NCC(=O)c2ccc(O)c(O)c2)[nH]n1
[1]
  IC50: 5.71 µM (active)
[2]
  IC50: 18.3 µM (active)

## Cn1cccc1/C=C1\C(=O)NC(=O)N(Cc2ccccc2Cl)C1=O
[3]
  IC50: 0.978 µM (active)

## CCn1nnc(NC(=O)c2ccc([N+](=O)[O-])o2)n1
[4]
  CC50: 4.8 µM (active)
[5]
  EC50: 0.179 µM (active)
[6]
  CC50: > 20 µM (active)
[7]
  EC50: > 60 µM (inconclusive)
[8]
  IC50: 61.7 µM (inactive)
[9]
  CC50: 38.5 µM (active)
Exodeoxyribonuclease V
  IC50: > 118 µM (inactive)

## Clc1ccccc1Cn1c(SCc2ccc(Br)cc2)nnc1-c1ccccn1
[10]
  EC50: 14.2 µM (inactive)

## Sc1nccn1-c1ccc(Cl)cc1
[11]
  IC50: 16.8 µM (active)
[12]
  IC50: > 100 µM (inactive)

## CCn1c(S)nnc1-c1cccc(Br)c1
[11]
  IC50: 4.37 µM (active)
[12]
  IC50: > 100 µM (inactive)
[13]
  IC50: > 122 µM (inactive)

## CC(C)C(=O)N1CCN(c2ccc(NC(=O)c3ccc([N+](=O)[O-])o3)cc2)CC1
[4]
  CC50: 3.34 µM (active)
[6]
  CC50: 9.53 µM (active)
Paired box protein Pax-8
  AC50: 4.48 µM (active)
[14]
  AC50: 7.98 µM (active)
cells
  IC50: 0.54 µM (active)
[8]
  IC50: > 119 µM (inactive)
[9]
  CC50: 5.52 µM (active)
Exodeoxyribonuclease V
  IC50: > 119 µM (inactive)

## CC1(C)CC(=O)C(/C=N/c2cc(C(=O)c3ccccc3)ccc2N)=C(O)C1
Troponin, cardiac muscle
  EC50: 20.4 µM (inactive)

## Nc1nc(Cc2ccc3ccccc3c2)n(-c2ccccc2)n1
[1]
  IC50: > 100 µM (inactive)
[15]
  IC50: > 100 µM (not active)
[2]
  IC50: > 100 µM (inactive)

## O=C(Oc1ccccc1/C=C\C(=O)c1cc2ccccc2o1)c1ccccc1
[16]
  EC50: 15.4 µM (inactive)
